Earlier results as cited in US20180153879A1, “Solid Dispersion Comprising μ-Opioid Antagonists” (Sandoz AG, priority 2016, published 2018).

Conditions: free base form, exposure to air

Compound: C=CCN1CC[C@]23c4c5ccc(O)c4O[C@H]2[C@@H](OCCOCCOCCOCCOCCOCCOCCOC)CC[C@@]3(O)[C@H]1C5 [naloxegol, (5α,6α)-17-allyl-6-(2,5,8,11,14,17,20-heptaoxadocosan-22-yloxy)-4,5-epoxymorphinan-3,14-diol]
- oxidative stability: can undergo oxidative degradation upon exposure to air
